Source: US9499464B2, “Opsin-binding ligands, compositions and methods of use” (priority 2011, dated 2016)

Each compound was assayed on P23H opsin (assay: Rhodopsin purification and regeneration (P23H cells treated with compound, regenerated with 9-cis-retinal, 480-500 nm absorbance)). Conditions: FIG. 1; P23H opsin treated with 20 µM during mutant protein production, relative to vehicle (DMSO) alone.

Compound	regeneration of 500 nm absorbing pigment upon treatment with retinal
CC(=O)/C=C/C1=C(C)CCCC1(C)C [β-ionone, reference compound]	increase

Same assay, conditions: P23H cells, compound concentration 10 μM, 48 hours, regeneration with 9-cis-retinal (20 μM)

Compound	Fold Increase Over Control (480-500 nm absorbance as fold increase over the DMSO control) [fold]
CC1=CC(=O)[C@H]2C(C)(C)CCC[C@@]12C (racemic) [Compound 1, (±)-(3aR,7aS)-3,3a,7,7-tetramethyl-3a,4,5,6,7,7a-hexahydro-1H-inden-1-one]	1.7
CC1(C)CCC[C@@]2(C)CC(=O)C[C@@H]12 (racemic) [Compound 40, (±)-(3aS,7aS)-3a,7,7-trimethylhexahydro-1H-inden-2(3H)-one]	1.8
CC1(C)CCCC2(C)CC(=NO)C=C12 (stereo not drawn) [Compound 30, 4,4,7a-trimethyl-5,6,7,7a-tetrahydro-1H-inden-2(4H)-one oxime]	1.8
CC(C)C1=CC(=O)[C@H]2C(C)(C)CCC[C@@]12C (racemic) [Compound 29, (±)-(3aR,7aS)-3-isopropyl-3a,7,7-trimethyl-3a,4,5,6,7,7a-hexahydro-1H-inden-1-one]	2.4
CC1(C)CCC[C@@]2(C)C=C[C@@H](O)[C@@H]12 (racemic) [Compound 37, (±)-(1R,3aS,7aS)-3a,7,7-trimethyl-3a,4,5,6,7,7a-hexahydro-1H-inden-1-ol]	1.8
CC1(C)CCC[C@@]2(C)C(c3ccccc3)=CC(=O)[C@@H]12 (racemic) [Compound 28, (±)-(3aR,7aS)-3a,7,7-trimethyl-3-phenyl-3a,4,5,6,7,7a-hexahydro-1H-inden-1-one]	1.7
CCC1=CC(=O)[C@H]2C(C)(C)CCC[C@@]12C (racemic) [Compound 34, (±)-(3aR,7aS)-3-ethyl-3a,7,7-trimethyl-3a,4,5,6,7,7a-hexahydro-1H-inden-1-one]	2.2
CC1(C)CCCC2=CC(=O)CC21 (stereo not drawn) [Compound 27, 7,7-dimethyl-5,6,7,7a-tetrahydro-1H-inden-2(4H)-one]	2.0
CC1(C)CCCC2CC(=NO)CC21 (stereo not drawn) [Compound 55, 4,4-dimethylhexahydro-1H-inden-2(3H)-one oxime]	2.8
CC1(C)CCC[C@@]2(C)C(=O)CC[C@@H]12 (racemic) [Compound 5, (±)-(3aS,7aR)-4,4,7a-trimethyloctahydro-1H-inden-1-one]	1.7
CC(C)(C)C1=CC(=O)[C@H]2C(C)(C)CCC[C@@]12C (racemic) [Compound 43, (±)-(3aR,7aS)-3-tert-butyl-3a,7,7-trimethyl-3a,4,5,6,7,7a-hexahydro-1H-inden-1-one]	1.7
CON=C1C=C2C(C)(C)CCCC2(C)C1 (stereo not drawn) [Compound 31, 4,4,7a-trimethyl-5,6,7,7a-tetrahydro-1H-inden-2(4H)-one O-methyl oxime]	1.6
CC1(C)CCC(C)(C)C2CC(=O)C=C21 (stereo not drawn) [Compound 41, 4,4,7,7-tetramethyl-5,6,7,7a-tetrahydro-1H-inden-2(4H)-one]	1.9

Same assay, conditions: P23H cells, compound concentration 20 μM, 48 hours, regeneration with 9-cis-retinal (20 μM)

Compound	Fold Increase Over Control (480-500 nm absorbance as fold increase over the DMSO control) [fold]
CC1=C(C)[C@]2(C)CCCC(C)(C)[C@@H]2[C@H]1O (racemic) [Compound 66, (±)-(1R,3aR,7aS)-2,3,3a,7,7-pentamethyl-3a,4,5,6,7,7a-hexahydro 1H inden-1-ol]	1.9
CC1(C)CCC[C@@]2(C)C=C(CO)C[C@@H]12 (racemic) [Compound 22, (±)-((3aS,7aS)-3a,7,7-trimethyl-3a,4,5,6,7,7a-hexahydro-1H-inden-2-yl)methanol]	1.8
COC(=O)C1=C[C@]2(C)CCCC(C)(C)[C@@H]2C1 (racemic) [Compound 8, (±)-(3aS,7aS)-methyl 3a,7,7-trimethyl-3a,4,5,6,7,7a-hexahydro-1H-indene-2-carboxylate]	2.1
CC1(C)CCC(C)(C)[C@H]2CC(=O)C[C@H]21 [Compound 70, (3aR,7aS) and (3aS,7aR)-4,4,7,7-tetramethylhexahydro-1H-inden-2(3H)-one]	1.9
CC1=C(C)[C@]2(C)CCCC(C)(C)[C@@H]2C1=O (racemic) [Compound 65, (±)-(3aR,7aS)-2,3,3a,7,7-pentamethyl-3a,4,5,6,7,7a-hexahydro-1H-inden-1-one]	1.8
CC(C)[C@@H]1C[C@H](O)[C@H]2C(C)(C)CCC[C@@]12C (racemic) [Compound 58, (±)-(1S,3S,3aS,7aS)-3-isopropyl-3a,7,7-trimethyloctahydro-1H-inden-1-ol]	2.0
C[C@H]1C(=O)C=C2[C@H]1CCCC2(C)C (racemic) [Compound 67, (±)-(1R,7aS)-1,4,4-trimethyl-5,6,7,7a-tetrahydro-1H-inden-2(4H)-one]	1.8
CC1=CC(=NO)[C@H]2C(C)(C)CCC[C@@]12C (racemic) [Compound 14, (±)-(3aR,7aS)-3,3a,7,7-tetramethyl-3a,4,5,6,7,7a-hexahydro-1H-inden-1-one oxime]	2.4
CC1(C)CCC[C@@]2(C)CC(CO)C[C@@H]12 (mixture of isomers) [Compound 26, (±)-((3aS,7aS)-3a,7,7-trimethyloctahydro-1H-inden-2-yl)methanol]	2.3
C[C@H]1C(=O)C=C2C(C)(C)CCC[C@]21C (racemic) [Compound 20, (±)-(1R,7aS)-1,4,4,7a-tetramethyl-5,6,7,7a-tetrahydro-1H-inden-2(4H)-one]	1.9
CC1(C)CCC(C)(C)C2CC(=O)C=C21 (single isomer, unassigned) [Compound 69b, (−)-4,4,7,7-tetramethyl-5,6,7,7a-tetrahydro-1H-inden-2(4H)-one]	1.8
CN1CC2=C(C1=O)C(C)(C)CCC2 [Compound 13, 2,7,7-trimethyl-2,3,4,5,6,7-hexahydro-1H-isoindol-1-one]	2.2
CC(=O)/C=C/C1=C(C)CCCC1(C)C [β-ionone, reference compound]	2.4
CC1(C)CCC(C)(C)[C@H]2OC(=O)C[C@H]21 (racemic) [Compound 3, (±)-(3aS,7aS)-4,4,7,7-tetramethylhexahydrobenzofuran-2(3H)-one]	2.2
C[C@@H]1CC(=NO)[C@H]2C(C)(C)CCC[C@@]12C (racemic) [Compound 16, (±)-(3R,3aS,7aS)-3,3a,7,7-tetramethyloctahydro-1H-inden-1-one oxime]	2.2
CC1(C)CCC[C@@]2(C)CC(=NO)C[C@@H]12 (racemic) [Compound 62, (±)-(3aS,7aS)-3a,7,7-trimethylhexahydro-1H-inden-2(3H)-one oxime]	2.3
